Values quoted from earlier work in patent publication US20210350875A1, “HIGH THROUGHPUT METHOD AND SYSTEM FOR MAPPING INT[…] DIAGRAMS” (The Trustees of Princeton University, priority 2018, published 2021).

Tested on: phase separation
Conditions: positive control agent, 10 wells, FIG. 2B

hexanediol
inhibition of phase separation: fully inhibit phase separation
